The values below come from US20160089365A1, “IMMUNOSTIMULATORY COMPOUND” (Eisai R&D Management Co., Ltd., priority 2014, published 2016).

The nature of data set [1]: Body weight of mice during the xenograft study. The class given is in vivo, Mouse. The settings on record: athymic and wild-type mice, oral 3 and 10 mg/kg once daily for 7 days, during the study period. The procedure:
(§1) Lenvatinib mesilate (3 and 10 mg/kg) or vehicle was orally administered at 0.1 mL/10 g body weight, once daily for 7 days (Day 1-7). The tumor volume and body weight of mice were measured on Day 1, 3, 6, and 8.

Data set [2] relates to IFN-γ+ cells in CD8+ T cells of draining lymph nodes. Description: IFN-γ staining analysis of CD8+ T cells derived from draining lymph nodes in BNL 1MEA.7R.1 xenografts in wild-type mice. Type of data set: in vivo, Mouse (BALB/cAnNCrlCrlj. Conditions: oral 10 mg/kg once a day for 7 days, Day 8. The procedure: Draining lymph nodes derived from BNL 1MEA.7R. 1 xenograft model in wild-type mice 1 day after once-daily oral administration of vehicle or lenvatinib mesilate (10 mg/kg) for 7 days in Referential Ex. 1 were isolated and mashed by a 5-mL syringe. The cell number in suspension was calculated and adjusted to 2.0×10^6 cells/mL with RPMI1640 containing 10% FBS, 100 U/mL penicillin, and 100 μg/mL streptomycin. One hundred microliters per well of the resultant cell suspension were plated in a 96-well cell culture cluster round bottom plate (Corning Incorporated) and cultured with BD Goldi-Stop™ (final concentration [conc.] 4 μL/6 mL) for 5 hours in 5% CO2 at 37° C. […] After washing with 200 μL of BD Perm/Wash buffer 2 times, the resultant cells were resuspended with 200 μL of BD Perm/Wash buffer, and analyzed to detect percentage of IFN-γ-positive cells in CD3- and CD8-positive cells by FACSAriaII SORP cell sorter (Becton, Dickinson and company) with BD FACSDiva 6.1.3 software (Becton, Dickinson and company). […]
Data are expressed as mean±SD. The differences in percentage of IFN-γ-positive cells in CD8^+ T cells between vehicle- and lenvatinib mesilate-treated groups were analyzed by the unpaired t test

Data set [3] has as its system BNL 1MEA.7R.1 murine hepatocellular carcinoma xenografts. Kind of data set: Antitumor effects in BNL 1MEA.7R.1 murine hepatocellular carcinoma xenografts in wild-type mice. The class given is in vivo, Mouse (BALB/cAnNCrlCrlj. Conditions: Day 8. The procedure:
The BNL 1MEA.7R. 1 murine hepatocellular carcinoma cells were cultured in Dulbecco's minimal essential medium (DMEM) supplemented with 10% heat-inactivated (56° C., 30 minutes) fetal bovine serum (FBS) and 100 U/mL penicillin, 100 μg/mL streptomycin, 1-glutamine (2 mmol/L) in humidified atmosphere of 5% CO2 at 37° C. This tumor cell line was developed from BALB/c mouse. The cells were washed with phosphate buffered saline (PBS), harvested with 0.25% trypsin-EDTA, and suspended with 50% BD Matrigel™ (BD biosciences) in the Hank's balanced salt solution (HBSS) at a density of 1×10^8 cells/mL. A 0.1 mL aliquot of the cell suspension was inoculated subcutaneously into the right flank of each mouse. Fifty days after the inoculation (Day 1), 15 out of 25 athymic mice and 25 out of 33 wild-type mice were selected based on their tumor volumes, shapes of tumors, physical condition, and body weights. Then the selected athymic and wild-type mice were randomly divided into 3 groups (Group 1-3 in the following table “Treatment Groups”) and 5 groups (Group 4-8), respectively. Animals assigned to Group 4, 6, 7, and 8 were used in Ex. 1 and 2. The mean tumor volumes of athymic and wild-type mice assigned to 8 groups were 169.5 and 157.5 mm^3, respectively, on Day 1.
as §1
Tumor volume (mm^3)=length (mm)×width^2 (mm^2)×1/2
(§2) Data are expressed as mean±SD. The differences in relative tumor volume on Day 8 between vehicle- and lenvatinib mesilate-treated groups (3 and 10 mg/kg) in athymic and wild-type mice were analyzed by one-way analysis of variance followed by the Dunnett multiple comparison test, respectively. […]
To compare antitumor activities of lenvatinib mesilate between different strains, differences in % TGI of lenvatinib mesilate between athymic and wild-type mice at each dose were analyzed by the unpaired t test.

The test system of data set [4] is tumor-associated macrophage (TAM) population in tumor. Kind of data set: Immune population analysis in BNL 1MEA.7R.1 xenograft tumor of wild-type mice by flow cytometry. Conditions: oral 10 mg/kg once a day for 7 days, Day 8. The class given is in vivo, Mouse (BALB/cAnNCrlCrlj. As to the method: Half-cut tumor samples collected from BNL 1MEA.7R.1 xenograft model in wild-type mice 1 day after the administration of vehicle or lenvatinib mesilate (10 mg/kg) in Referential Ex. 1 (Group 4, 6, 7, and 8) were minced with a razor on ice. The tumor fragments were digested with collagenase (1900 U/mL) and deoxyribonuclease I (160 KIU/mL) in HBSS for 1 hour at 37° C. with magnetic stirring in flasks. After filtering through cell strainer (pore size 70 μm), harvested cells were washed 3 times with flow cytometry buffer (PBS supplemented with 0.5% bovine serum albumin and 2 mmol/L EDTA). Cells were resuspended with 200 μL of FCM buffer containing 5 μg/mL Mouse BD Fc Block™ (BD biosciences), and incubated at 4° C. for 10 minutes. Antibody cocktail (dilution; 1:2 in FCM buffer) 1 and 2 were prepared as below.
One hundred microliters of cell suspension was mixed with 100 μL of the antibody cocktail 1 or 2 in each well of two 96-well cell culture round bottom plates (Corning Incorporated), and incubated at 4° C. for 30 minutes in a light protected. […] Data were analyzed by FCM analysis software FlowJo 7.6.5 (Tree Star, Inc.).
Data are expressed as mean±SD. The differences in percentage of target cells in CD45^+ cells between vehicle- and lenvatinib mesilate-treated groups were analyzed by the unpaired t test.
On the technique in general: A flow cytometer gives signals particle by particle.

Data set [5] deals with BNL 1MEA.7R.1 murine hepatocellular carcinoma xenografts. Kind of data set: Antitumor effects in BNL 1MEA.7R.1 murine hepatocellular carcinoma xenografts in athymic mice. Type of data set: in vivo, Mouse (CAnN.Cg-Foxn1nu/CrlCrlj. Conditions: oral 3 and 10 mg/kg once daily for 7 days, Day 8. The procedure:
The BNL 1MEA.7R. 1 murine hepatocellular carcinoma cells were cultured in Dulbecco's minimal essential medium (DMEM) supplemented with 10% heat-inactivated (56° C., 30 minutes) fetal bovine serum (FBS) and 100 U/mL penicillin, 100 μg/mL streptomycin, 1-glutamine (2 mmol/L) in humidified atmosphere of 5% CO2 at 37° C. This tumor cell line was developed from BALB/c mouse. The cells were washed with phosphate buffered saline (PBS), harvested with 0.25% trypsin-EDTA, and suspended with 50% BD Matrigel™ (BD biosciences) in the Hank's balanced salt solution (HBSS) at a density of 1×10^8 cells/mL. A 0.1 mL aliquot of the cell suspension was inoculated subcutaneously into the right flank of each mouse. Fifty days after the inoculation (Day 1), 15 out of 25 athymic mice and 25 out of 33 wild-type mice were selected based on their tumor volumes, shapes of tumors, physical condition, and body weights. […]
Lenvatinib mesilate (3 and 10 mg/kg) or vehicle was orally administered at 0.1 mL/10 g body weight, once daily for 7 days (Day 1-7). The tumor volume and body weight of mice were measured on Day 1, 3, 6, and 8. […]
as §2

Entries after “also recorded” stand apart in the source; their conditions may differ.

On to `COc1cc2nccc(Oc3ccc(NC(=O)NC4CC4)c(Cl)c3)c2cc1C(N)=O` [lenvatinib mesilate, 4-(3-chloro-4-(cyclopropylaminocarbonyl)aminophenoxy)-7-methoxy-6-quinolinecarboxamide], for which, in data set [1], the body weight loss result is on record as “Any severe body weight loss was not observed”. In data set [2], the “percentage of IFN-γ+ cells in CD8+ T cells in dLN compared to vehicle” value is reported as “significantly increased”. In addition, the “% TGI in wild-type mice compared to athymic mice at each dose” value in data set [3] (oral 3 and 10 mg/kg once daily for 7 days) is recorded as “significantly larger”. Further, the “tumor shrinkage in individual animals” value in data set [3] (wild-type mice, both treatment groups (3 and 10 mg/kg)) is recorded as “tumors from all animals shrank”. Further, the “tumor volume compared to vehicle” value in data set [3] (wild-type mice, oral 3 and 10 mg/kg once daily for 7 days) was “significant reduction in tumor volume”. Besides, in data set [4], the “percentage of TAM population (CD45+CD11b+Ly6G-F4/80+Ly6Clow) in total CD45+ cells compared to vehicle” value is “significant reduction” and the “percentage of immature TAM (CD45+CD11b+Ly6G-F4/80-Ly6Chigh) in total CD45+ cells compared to vehicle” value was “increased”. Further, in data set [5], the “tumor volume compared to vehicle” value is listed as “no significant difference; also recorded: only tumor growth delay”.
